This assay deals with NA of A/Alabama/03/2020 A(H1N1)pdm09 (H275Y) (Influenza A virus, UniProt A0A0X9QTS2, H275Y). The assay is classed as biochemical. The conditions noted are these: for IC50: read-out: Mean IC50 ± SD.

Broadly, the IC50 is the concentration at which inhibition is half-maximal. Turning to oseltamivir carboxylate, the IC50 turned out to be 0.23 µM.

peramivir: the IC50 fold-change is 15.25 ± 2.11 (254) fold and the 50% inhibitory concentration (IC50) amounted to 0.0152 µM.
